Legend:
[1] = biological target: Epithelial discoidin domain-containing receptor 1 (Homo sapiens, UniProt Q08345); test: LanthaScreen Eu Kinase Activity Assay; conditions: pH 7.5; 25 °C
Procedure: (§1) The effects of compounds on the kinases DDR1 and DDR2 were assessed by using a LanthaScreen Eu kinase activity assay technology (Invitrogen, Carlsbad, CA, USA). […] Reaction buffer for the kinase reaction consists of 50 mm HEPES pH 7.5, 0.01% BRIJ-35, 10 mm MgCl2, and 1 mm EGTA. The concentration of fluorescein-polyGAT substrate (Invitrogen) in the assay was […] reactions were initiated with the addition of […] in the presence of serial dilutions of compounds. The reactions were allowed to proceed for 1 hour at room temperature before a 10 μL preparation of EDTA (20 mm) and Eu-labeled antibody (4 nm) in TR-FRET dilution buffer was added. The final concentration of antibody in the assay well was 2 nm, and the final concentration of EDTA was 10 mm.

[2] = biological target: T1, Discoidin domain-containing receptor 2 (Homo sapiens, UniProt Q16832); test: LanthaScreen Eu Kinase Activity Assay; conditions: pH 7.5; 25 °C
T1 sequence (Q16832 whole entry): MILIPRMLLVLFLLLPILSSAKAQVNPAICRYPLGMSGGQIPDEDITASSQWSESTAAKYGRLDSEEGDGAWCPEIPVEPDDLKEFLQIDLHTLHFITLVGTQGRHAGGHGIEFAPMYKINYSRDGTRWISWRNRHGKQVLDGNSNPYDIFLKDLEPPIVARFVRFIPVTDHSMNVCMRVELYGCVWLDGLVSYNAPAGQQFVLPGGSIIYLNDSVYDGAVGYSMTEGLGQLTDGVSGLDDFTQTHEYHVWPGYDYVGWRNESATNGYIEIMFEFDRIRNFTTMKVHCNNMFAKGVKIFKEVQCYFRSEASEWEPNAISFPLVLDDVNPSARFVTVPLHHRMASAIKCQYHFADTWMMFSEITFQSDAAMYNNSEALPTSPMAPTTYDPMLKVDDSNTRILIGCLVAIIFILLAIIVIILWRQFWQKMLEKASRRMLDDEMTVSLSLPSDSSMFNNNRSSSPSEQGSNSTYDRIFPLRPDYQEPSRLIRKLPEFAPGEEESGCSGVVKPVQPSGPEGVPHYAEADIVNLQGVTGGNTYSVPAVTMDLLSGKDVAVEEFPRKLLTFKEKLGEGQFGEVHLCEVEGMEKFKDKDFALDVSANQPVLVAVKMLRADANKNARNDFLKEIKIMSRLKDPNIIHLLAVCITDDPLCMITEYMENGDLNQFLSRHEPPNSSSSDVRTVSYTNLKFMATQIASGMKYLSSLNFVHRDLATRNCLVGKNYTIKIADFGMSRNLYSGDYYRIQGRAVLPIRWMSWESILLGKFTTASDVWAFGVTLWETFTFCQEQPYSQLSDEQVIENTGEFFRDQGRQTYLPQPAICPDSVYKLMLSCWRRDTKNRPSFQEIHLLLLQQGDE
Procedure: as §1

Sequence of Epithelial discoidin domain-containing receptor 1 (Q08345 whole entry, the tested form may be a part): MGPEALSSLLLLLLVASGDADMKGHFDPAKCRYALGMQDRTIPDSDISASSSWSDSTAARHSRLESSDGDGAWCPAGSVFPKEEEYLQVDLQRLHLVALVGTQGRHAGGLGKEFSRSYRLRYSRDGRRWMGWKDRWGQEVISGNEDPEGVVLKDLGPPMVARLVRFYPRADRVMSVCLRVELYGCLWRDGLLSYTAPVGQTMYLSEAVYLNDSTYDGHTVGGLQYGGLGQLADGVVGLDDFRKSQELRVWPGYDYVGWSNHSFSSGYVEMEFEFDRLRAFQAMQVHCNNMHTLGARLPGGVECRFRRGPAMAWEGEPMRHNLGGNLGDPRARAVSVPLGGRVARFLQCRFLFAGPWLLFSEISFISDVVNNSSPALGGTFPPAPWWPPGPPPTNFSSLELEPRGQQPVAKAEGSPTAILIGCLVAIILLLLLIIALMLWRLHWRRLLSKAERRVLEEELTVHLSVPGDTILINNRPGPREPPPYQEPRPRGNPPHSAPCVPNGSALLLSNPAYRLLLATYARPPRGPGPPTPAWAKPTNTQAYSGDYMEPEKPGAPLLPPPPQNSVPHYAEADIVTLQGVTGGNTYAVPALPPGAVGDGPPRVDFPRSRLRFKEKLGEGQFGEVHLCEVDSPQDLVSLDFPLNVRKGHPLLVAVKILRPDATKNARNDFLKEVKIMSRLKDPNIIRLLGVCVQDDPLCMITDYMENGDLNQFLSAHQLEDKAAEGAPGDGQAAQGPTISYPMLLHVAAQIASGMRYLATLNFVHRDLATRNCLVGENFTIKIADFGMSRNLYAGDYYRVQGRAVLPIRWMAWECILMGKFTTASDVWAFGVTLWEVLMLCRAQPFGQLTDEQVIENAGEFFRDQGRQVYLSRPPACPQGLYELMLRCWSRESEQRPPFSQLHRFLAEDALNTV

Structure (SMILES) | IC50 [1] [nM] | IC50 [2] [nM]
Cc1nc(Nc2ncc(C(=O)Nc3c(C)cccc3Cl)s2)cc(C2CCN(C(=O)OCC(C)C)C2)n1 (stereo not drawn) [Isobutyl 3-(6-((5-((2-chloro-6-methylphenyl)carbamoyl)thiazol-2-yl)amino)-2-methylpyrimidin-4-yl)pyrrolidine-1-carboxylate (5f)] | 12.1 | 85.4
CCS(=O)(=O)N1CCC(Nc2cc(Nc3ncc(C(=O)Nc4c(C)cccc4Cl)s3)nc(C)n2)C1 (stereo not drawn) [N-(2-chloro-6-methylphenyl)-2-((6-((1-(ethylsulfonyl)pyrrolidin-3-yl)amino)-2-methylpyrimidin-4-yl)amino)thiazole-5-carboxamide (5j)] | 48.5 | 156
Cc1nc(Nc2ncc(C(=O)Nc3c(C)cccc3Cl)s2)cc(N2CCN(C(=O)OCc3ccccc3)CC2)n1 [Benzyl 4-(6-((5-((2-chloro-6-methylphenyl)carbamoyl)thiazol-2-yl)amino)-2-methylpyrimidin-4-yl)-piperazine-1-carboxylate (3h)] | 22.6 | 133
Cc1nc(Nc2ncc(C(=O)Nc3c(C)cccc3Cl)s2)cc(C2CCN(C(=O)OCc3ccccc3)C2)n1 (stereo not drawn) [Benzyl 3-(6-((5-((2-chloro-6-methylphenyl)carbamoyl)thiazol-2-yl)amino)-2-methylpyrimidin-4-yl)pyrrolidine-1-carboxylate (5h)] | 22 | 285
CCOC(=O)N1CCC(c2cc(Nc3ncc(C(=O)Nc4c(C)cccc4Cl)s3)nc(C)n2)C1 (stereo not drawn) [Ethyl 3-(6-((5-((2-chloro-6-methylphenyl)carbamoyl)thiazol-2-yl)amino)-2-methylpyrimidin-4-yl)pyrrolidine-1-carboxylate (5b)] | 9.6 | 22.4
C=CC(=O)N1CCC(Nc2cc(Nc3ncc(C(=O)Nc4c(C)cccc4Cl)s3)nc(C)n2)C1 (stereo not drawn) [2-((6-((1-Acryloylpyrrolidin-3-yl)amino)-2-methylpyrimidin-4-yl)amino)-N-(2-chloro-6-methylphenyl)thiazole-5-carboxamide (5k)] | 7.31 | 34.4
CCCCOC(=O)N1CCC(c2cc(Nc3ncc(C(=O)Nc4c(C)cccc4Cl)s3)nc(C)n2)C1 (stereo not drawn) [Butyl 3-(6-((5-((2-chloro-6-methylphenyl)carbamoyl)thiazol-2-yl)amino)-2-methylpyrimidin-4-yl)pyrrolidine-1-carboxylate (5e)] | 15.3 | 123
Cc1nc(Nc2ncc(C(=O)Nc3c(C)cccc3Cl)s2)cc(C2CCN(C(=O)OC(C)C)C2)n1 (stereo not drawn) [Isopropyl 3-(6-((5-((2-chloro-6-methylphenyl)carbamoyl)thiazol-2-yl)amino)-2-methylpyrimidin-4-yl)pyrrolidine-1-carboxylate (5c)] | 9.14 | 72.1
COC(=O)N1CCC(c2cc(Nc3ncc(C(=O)Nc4c(C)cccc4Cl)s3)nc(C)n2)C1 (stereo not drawn) [Methyl 3-(6-((5-((2-chloro-6-methylphenyl)carbamoyl)thiazol-2-yl)amino)-2-methylpyrimidin-4-yl)pyrrolidine-1-carboxylate (5a)] | 5.23 | 32.9
Cc1nc(Nc2ncc(C(=O)Nc3c(C)cccc3Cl)s2)cc(NC2CCN(S(C)(=O)=O)C2)n1 (stereo not drawn) [N-(2-chloro-6-methylphenyl)-2-((2-methyl-6-((1-(methylsulfonyl)pyrrolidin-3-yl)amino)-pyrimidin-4-yl)amino)thiazole-5-carboxamide (5i)] | 11.7 | 38.3
CCC(=O)N1CCC(Nc2cc(Nc3ncc(C(=O)Nc4c(C)cccc4Cl)s3)nc(C)n2)C1 (stereo not drawn) [N-(2-chloro-6-methylphenyl)-2-((2-methyl-6-((1-propionylpyrrolidin-3-yl)amino)pyrimidin-4-yl)amino)thiazole-5-carboxamide (5l)] | 17.9 | 23.9
Cc1nc(Nc2ncc(C(=O)Nc3c(C)cccc3Cl)s2)cc(N2CCN(C(=O)Oc3ccccc3)CC2)n1 [Phenyl 4-(6-((5-((2-chloro-6-methylphenyl)carbamoyl)thiazol-2-yl)amino)-2-methylpyrimidin-4-yl)-piperazine-1-carboxylate (3g)] | 7.14 | 21.3
C=CCOC(=O)N1CCC(c2cc(Nc3ncc(C(=O)Nc4c(C)cccc4Cl)s3)nc(C)n2)C1 (stereo not drawn) [Allyl 3-(6-((5-((2-chloro-6-methylphenyl)carbamoyl)thiazol-2-yl)amino)-2-methylpyrimidin-4-yl)pyrrolidine-1-carboxylate (5d)] | 13.3 | 17

The remaining lines, values ahead:

IC50 [1] [nM] | IC50 [2] [nM] | Structure (SMILES)
4.21 | 9 | Cc1nc(Nc2ncc(C(=O)Nc3c(C)cccc3Cl)s2)cc(N2CCN(C(=O)OCCCl)CC2)n1 [2-Chloroethyl 4-(6-((5-((2-chloro-6-methylphenyl)carbamoyl)thiazol-2-yl)amino)-2-methylpyrimidin-4-yl)-piperazine-1-carboxylate (3i)]
4.54 | 6.29 | C=CC(=O)N1CCN(c2cc(Nc3ncc(C(=O)Nc4c(C)cccc4Cl)s3)nc(C)n2)CC1 [2-((6-(4-Acryloylpiperazin-1-yl)-2-methylpyrimidin-4-yl)amino)-N-(2-chloro-6-methylphenyl)-thiazole-5-carboxamide (3l)]
3.2 | 6.16 | CCCCOC(=O)N1CCN(c2cc(Nc3ncc(C(=O)Nc4c(C)cccc4Cl)s3)nc(C)n2)CC1 [Butyl 4-(6-((5-((2-chloro-6-methylphenyl)carbamoyl)thiazol-2-yl)amino)-2-methylpyrimidin-4-yl)-piperazine-1-carboxylate (3e)]
6.75 | 34.6 | Cc1nc(Nc2ncc(C(=O)Nc3c(C)cccc3Cl)s2)cc(N2CCN(C(=O)OCC(C)C)CC2)n1 [Isobutyl 4-(6-((5-((2-chloro-6-methylphenyl)carbamoyl)thiazol-2-yl)amino)-2-methylpyrimidin-4-yl)-piperazine-1-carboxylate (3f)]
2.26 | 7.04 | Cc1nc(Nc2ncc(C(=O)Nc3c(C)cccc3Cl)s2)cc(N2CCN(C(=O)OCCN3CCOCC3)CC2)n1 [2-Morpholinoethyl 4-(6-((5-((2-chloro-6-methylphenyl)carbamoyl)thiazol-2-yl)amino)-2-methylpyrimidin-4-yl)-piperazine-1-carboxylate (3j)]
2.56 | 7.89 | Cc1nc(Nc2ncc(C(=O)Nc3c(C)cccc3Cl)s2)cc(N2CCN(C(=O)OCCN(C)C)CC2)n1 [2-(Dimethylamino)ethyl 4-(6-((5-((2-chloro-6-methylphenyl)carbamoyl)thiazol-2-yl)amino)-2-methylpyrimidin-4-yl)-piperazine-1-carboxylate (3k)]
5.99 | 14 | Cc1nc(Nc2ncc(C(=O)Nc3c(C)cccc3Cl)s2)cc(N2CCN(C(=O)OC(C)C)CC2)n1 [Isopropyl 4-(6-((5-((2-chloro-6-methylphenyl)carbamoyl)thiazol-2-yl)amino)-2-methylpyrimidin-4-yl)-piperazine-1-carboxylate (3c)]
4.32 | 6.76 | COC(=O)N1CCN(c2cc(Nc3ncc(C(=O)Nc4c(C)cccc4Cl)s3)nc(C)n2)CC1 [Methyl 4-(6-((5-((2-chloro-6-methylphenyl)carbamoyl)thiazol-2-yl)amino)-2-methylpyrimidin-4-yl)-piperazine-1-carboxylate (3a)]
3.15 | 11.4 | CCOC(=O)N1CCN(c2cc(Nc3ncc(C(=O)Nc4c(C)cccc4Cl)s3)nc(C)n2)CC1 [Ethyl 4-(6-((5-((2-chloro-6-methylphenyl)carbamoyl)thiazol-2-yl)amino)-2-methylpyrimidin-4-yl)-piperazine-1-carboxylate (3b)]
6.69 | 21.6 | C=CCOC(=O)N1CCN(c2cc(Nc3ncc(C(=O)Nc4c(C)cccc4Cl)s3)nc(C)n2)CC1 [Allyl 4-(6-((5-((2-chloro-6-methylphenyl)carbamoyl)thiazol-2-yl)amino)-2-methylpyrimidin-4-yl)-piperazine-1-carboxylate (3d)]
4.25 | 8.34 | C/C=C/C(=O)N1CCN(c2cc(Nc3ncc(C(=O)Nc4c(C)cccc4Cl)s3)nc(C)n2)CC1 [(E)-2-((6-(4-(but-2-enoyl)piperazin-1-yl)-2-methylpyrimidin-4-yl)amino)-N-(2-chloro-6-methylphenyl)thiazole-5-carboxamide (3m)]
